From patent publication US20220213156A1, “Peptides for use in therapy or prophylaxis of Herpesviridae-infections” (priority 2019, published 2022) come the findings set out here.

The assay relates to clinical HCMV isolates. Put plainly: Infection assays with clinical isolates on HFF. In kind it is cell-based, Human Cytomegalovirus. On the procedure:
The antiviral activity of HD5 (1-9) (SEQ ID No. 1) in concentrations from 1.56 μM to 100 μM against infection with clinical HCMV isolates was investigated on HFF. In addition to the laboratory-adapted strain TB40/E-ΔUL16-eGFP, which served as reference strain, a breast milk-derived strain, an amniotic fluid-isolated strain and a multidrug-resistant viral isolate from leukocytes of a recipient after the third stem cell transplantation were used. The therapy-naïve strain from cell free milk whey (H1241-2016) was derived from a […] of a preterm infant 10 weeks postpartum during end of viral reactivation. The amnion fluid derived virus strain (H2497-2011) was isolated following termination of pregnancy based on severe fetal brain damage. The multidrug resistant CMV isolate (H815-2006) is already described (Gohring et al., “Dynamics of coexisting HCMV-UL97 and UL54 drug-resistance associated mutations in patients after haematopoietic cell transplantation”, J. Clin. Virol. 57(1):43-49, 2013). […] All viral isolates were primarily HFF-adapted and propagated in vitro with at least 10 passages to get TCID values of cell free viral supernatants of […].
Next, a peptide of the invention, i.e. HD5 (1-9) was tested on clinical HCMV isolates. 10 000 HFF were seeded into each well of a 96-well-plate containing 200 μl of medium. Cells were incubated overnight at 37° C. and 5% CO2. Next day medium was changed to medium without P/S. Cells were infected with different clinical HCMV isolates (MOI 0,2) and treated with peptide in concentrations from 1.56 μM to 100 μM in a volume of 100 μl. After 40 h of incubation cells were fixed with 2% PFA in PBS and permeabilised with 90% methanol in H2O. Afterwards an antibody staining for IE-antigens was performed and nuclei were stained with DAPI. Infection rate was analysed (IE+/DAPI+, normalized to medium control, n=1).
HCMV TB40/E is a lab-adapted strain that might differ from primary HCMV isolates in terms of cellular tropism, infectivity or cytopathic properties. […]

Residues, ends and D or L forms follow the SMILES beside them. Bounds are passed on as bounds.

As for `C[C@H](N)C(=O)N[C@H](C(=O)N[C@@H](CS)C(=O)N[C@@H](Cc1ccc(O)cc1)C(=O)N[C@@H](CS)C(=O)N[C@@H](CCCNC(=N)N)C(=O)N[C@H](C(=O)NCC(=O)N[C@@H](CCCNC(=N)N)C(=O)O)[C@@H](C)O)[C@@H](C)O` [HD5 (1-9), ATCYCRTGR] (H-ATCYCRTGR-OH; N-terminus and C-terminus assumed), under “100 μM in HFF, MOI 0.2 and 0.1”, the “inhibition of HCMV infection” value was “inhibited HCMV infection efficiently”. The “concentration at which inhibition of infection with all clinical isolates starts” value (HFF, 40 h) is at least 50 µM. Moreover, the “inhibition of infection with primary isolates (amniotic fluid, breast milk, multiresistant leukocyte isolate)” value (HFF, MOI 0.2 and 0.1) was “sensitive towards inhibition”.
